Active and inactive are the calls of the source. The calls are words filed in the database; no cut-off is given here.
Assays:
[1] = molecular target: T1, Acetylcholinesterase (Rattus norvegicus, UniProt P37136); test: Inhibition of rat cortex AChE using acetylthiocholine iodide as substrate measured after 15 mins by Ellman's method; type: tissue-based
T1 sequence (P37136 whole entry): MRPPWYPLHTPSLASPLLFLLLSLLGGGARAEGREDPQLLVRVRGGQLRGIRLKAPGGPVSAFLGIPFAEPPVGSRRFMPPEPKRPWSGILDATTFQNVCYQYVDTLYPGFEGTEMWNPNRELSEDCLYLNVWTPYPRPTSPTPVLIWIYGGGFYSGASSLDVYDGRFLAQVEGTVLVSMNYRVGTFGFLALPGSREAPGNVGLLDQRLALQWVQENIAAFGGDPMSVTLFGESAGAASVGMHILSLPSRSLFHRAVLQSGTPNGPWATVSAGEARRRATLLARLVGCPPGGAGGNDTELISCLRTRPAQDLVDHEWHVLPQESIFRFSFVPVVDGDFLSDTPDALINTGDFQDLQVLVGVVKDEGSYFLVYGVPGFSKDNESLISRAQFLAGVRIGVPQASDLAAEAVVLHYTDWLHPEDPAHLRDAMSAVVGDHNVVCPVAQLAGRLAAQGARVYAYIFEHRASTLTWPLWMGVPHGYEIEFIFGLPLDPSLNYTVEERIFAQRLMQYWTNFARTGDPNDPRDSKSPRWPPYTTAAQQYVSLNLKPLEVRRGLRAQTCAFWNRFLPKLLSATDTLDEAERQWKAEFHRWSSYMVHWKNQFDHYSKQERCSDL

[2] = molecular target: Amyloid-beta precursor protein (Homo sapiens) (UniProt P05067); test: Inhibition of self-induced amyloid beta (1 to 42) (unknown origin) aggregation at 25 uM by ThT fluorescence assay relative to control
Amyloid-beta precursor protein (Homo sapiens), sequence (P05067 whole entry): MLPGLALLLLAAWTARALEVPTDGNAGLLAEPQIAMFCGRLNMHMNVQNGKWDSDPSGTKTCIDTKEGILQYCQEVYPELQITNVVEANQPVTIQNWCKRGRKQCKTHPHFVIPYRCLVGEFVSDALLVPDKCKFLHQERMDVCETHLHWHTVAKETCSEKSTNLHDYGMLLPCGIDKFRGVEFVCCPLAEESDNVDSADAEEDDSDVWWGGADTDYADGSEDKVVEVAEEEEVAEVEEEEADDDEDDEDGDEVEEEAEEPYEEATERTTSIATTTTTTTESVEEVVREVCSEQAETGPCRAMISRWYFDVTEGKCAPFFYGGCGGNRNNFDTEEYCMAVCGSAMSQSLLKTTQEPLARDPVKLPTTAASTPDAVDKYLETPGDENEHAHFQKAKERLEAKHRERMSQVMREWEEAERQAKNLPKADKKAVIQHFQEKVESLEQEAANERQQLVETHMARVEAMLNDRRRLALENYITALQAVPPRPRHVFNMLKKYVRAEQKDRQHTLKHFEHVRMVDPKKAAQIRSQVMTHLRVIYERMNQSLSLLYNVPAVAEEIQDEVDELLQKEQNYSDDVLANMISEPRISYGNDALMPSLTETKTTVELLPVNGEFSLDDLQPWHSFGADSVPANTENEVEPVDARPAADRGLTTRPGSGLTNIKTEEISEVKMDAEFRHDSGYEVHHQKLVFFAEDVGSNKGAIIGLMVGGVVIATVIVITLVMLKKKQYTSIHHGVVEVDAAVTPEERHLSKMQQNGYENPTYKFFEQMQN

[3] = Antioxidant activity of compound assessed as trolox equivalent antioxidant capacity by ORAC-FL assay; type: functional
[4] = molecular target: Butyrylcholinesterase (Rattus norvegicus, UniProt Q9JKC1); test: Inhibition of rat serum BChE using acetylthiocholine iodide as substrate measured after 15 mins by Ellman's method; type: cell-free
Butyrylcholinesterase, sequence (Q9JKC1 whole entry): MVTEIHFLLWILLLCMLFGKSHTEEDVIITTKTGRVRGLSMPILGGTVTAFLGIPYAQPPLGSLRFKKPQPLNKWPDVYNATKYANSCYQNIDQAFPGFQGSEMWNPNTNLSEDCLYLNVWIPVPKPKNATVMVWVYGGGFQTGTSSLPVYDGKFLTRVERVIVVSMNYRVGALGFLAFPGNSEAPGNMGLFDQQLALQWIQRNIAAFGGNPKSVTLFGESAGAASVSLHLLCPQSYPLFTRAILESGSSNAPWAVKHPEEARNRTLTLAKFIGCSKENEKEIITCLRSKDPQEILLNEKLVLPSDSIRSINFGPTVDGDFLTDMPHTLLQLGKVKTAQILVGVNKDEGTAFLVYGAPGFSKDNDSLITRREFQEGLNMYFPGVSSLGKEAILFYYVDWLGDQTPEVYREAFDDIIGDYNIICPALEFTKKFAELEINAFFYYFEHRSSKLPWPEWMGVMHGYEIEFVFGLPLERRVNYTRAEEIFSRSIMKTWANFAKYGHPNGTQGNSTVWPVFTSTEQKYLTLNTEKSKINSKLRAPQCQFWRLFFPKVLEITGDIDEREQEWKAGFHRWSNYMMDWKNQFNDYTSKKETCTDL

[5] = molecular target: T2, Cholinesterase (Homo sapiens, UniProt P06276); test: Inhibition of human serum BChE using acetylthiocholine iodide as substrate measured after 15 mins by Ellman's method; type: cell-free
T2 sequence (P06276 whole entry): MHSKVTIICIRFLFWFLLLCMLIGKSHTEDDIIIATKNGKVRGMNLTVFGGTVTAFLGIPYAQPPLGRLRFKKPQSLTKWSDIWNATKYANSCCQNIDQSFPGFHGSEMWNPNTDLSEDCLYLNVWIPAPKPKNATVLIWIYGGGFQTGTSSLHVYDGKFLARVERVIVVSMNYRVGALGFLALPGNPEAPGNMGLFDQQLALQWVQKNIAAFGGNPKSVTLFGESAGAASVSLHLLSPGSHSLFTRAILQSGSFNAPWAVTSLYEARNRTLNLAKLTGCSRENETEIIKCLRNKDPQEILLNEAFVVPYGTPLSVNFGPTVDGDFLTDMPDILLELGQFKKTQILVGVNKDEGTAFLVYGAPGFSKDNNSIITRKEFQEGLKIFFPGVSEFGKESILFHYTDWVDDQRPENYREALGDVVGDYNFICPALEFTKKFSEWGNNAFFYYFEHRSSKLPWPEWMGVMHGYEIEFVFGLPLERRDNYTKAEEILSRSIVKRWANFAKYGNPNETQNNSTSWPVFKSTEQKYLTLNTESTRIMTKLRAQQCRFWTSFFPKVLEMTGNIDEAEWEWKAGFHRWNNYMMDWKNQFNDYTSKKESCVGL

[6] = molecular target: T3, Acetylcholinesterase (Homo sapiens, UniProt P22303); test: Inhibition of human erythrocytes AChE using acetylthiocholine iodide as substrate measured after 15 mins by Ellman's method; type: tissue-based, Erythrocyte
T3 sequence (P22303 whole entry): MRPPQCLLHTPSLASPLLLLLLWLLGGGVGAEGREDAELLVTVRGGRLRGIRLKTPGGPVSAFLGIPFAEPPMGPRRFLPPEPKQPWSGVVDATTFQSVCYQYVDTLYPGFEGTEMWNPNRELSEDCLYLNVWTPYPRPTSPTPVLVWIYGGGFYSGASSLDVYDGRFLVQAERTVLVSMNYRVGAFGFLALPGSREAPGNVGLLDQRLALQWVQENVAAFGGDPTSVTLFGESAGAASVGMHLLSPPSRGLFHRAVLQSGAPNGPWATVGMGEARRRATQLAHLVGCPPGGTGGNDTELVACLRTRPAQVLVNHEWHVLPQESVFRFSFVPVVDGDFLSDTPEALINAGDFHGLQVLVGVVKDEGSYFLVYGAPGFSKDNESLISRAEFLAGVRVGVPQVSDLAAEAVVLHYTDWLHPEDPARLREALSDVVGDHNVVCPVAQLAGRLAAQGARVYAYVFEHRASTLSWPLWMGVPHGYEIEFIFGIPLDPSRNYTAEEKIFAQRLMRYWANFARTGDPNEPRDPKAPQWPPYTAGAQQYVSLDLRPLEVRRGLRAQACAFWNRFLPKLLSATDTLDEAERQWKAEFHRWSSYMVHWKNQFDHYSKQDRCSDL

[7] = molecular target: T2, Cholinesterase; test: Pseudo-irreversible inhibition of human serum BChE assessed as enzyme recovery activity at 0.1 times IC50 using diluted compound relative to control; type: cell-free; parameters: scale not given: the % may be the effect or the level left
[8] = molecular target: T2, Cholinesterase; test: Pseudo-irreversible inhibition of human serum BChE assessed as enzyme recovery activity at 0.1 times IC50 measured immediately using diluted compound; type: cell-free; parameters: scale not given: the % may be the effect or the level left
[9] = molecular target: T3, Acetylcholinesterase; test: Pseudo-irreversible inhibition of human erythrocytes AChE assessed as enzyme recovery activity at 0.1 times IC50 measured at 120 mins using diluted compound relative to control; type: tissue-based; parameters: scale not given: the % may be the effect or the level left; details: Erythrocyte
[10] = test system: Mus musculus; test: Reversal of scopolamine-induced Kunming mouse model of memory impairment assessed as spontaneous alteration at 6 mg/kg by Y-maze test (reference value: 41.6 %); type: functional
[11] = molecular target: T2, Cholinesterase; test: Pseudo-irreversible inhibition of human serum BChE assessed as enzyme recovery activity at IC50 using diluted compound relative to control; type: cell-free; parameters: scale not given: the % may be the effect or the level left
[12] = test system: Mus musculus; test: Cognitive enhancing effect in scopolamine-induced Kunming mouse model of memory impairment assessed as effect on total arm entries at 6 mg/kg by Y-maze test; type: functional, organism-based
[13] = species on record: Danio rerio; test: Antialzheimer activity against 3 dpf zebrafish model of AlCl3-induced AD assessed as efficacy on motility distance at 8 uM relative to control; type: functional
[14] = species on record: Danio rerio; test: Antialzheimer activity against 3 dpf zebrafish model of AlCl3-induced AD assessed as efficacy on speed change at 8 uM relative to control; type: functional
[15] = species on record: Danio rerio; test: Antialzheimer activity against 3 dpf zebrafish model of AlCl3-induced AD assessed as motility by measuring change in speed at 8 uM (reference value: 1.05 mm/s); type: functional
[16] = molecular target: T2, Cholinesterase; test: Pseudo-irreversible inhibition of human serum BChE assessed as enzyme recovery activity at IC50 using undiluted compound relative to control; type: cell-free; parameters: scale not given: the % may be the effect or the level left
[17] = species on record: Danio rerio; test: Antialzheimer activity against 3 dpf zebrafish model of AlCl3-induced AD assessed as change in motility distance at 8 uM (reference value: 5204 mm); type: functional
[18] = Metal chelating activity assessed as Zn2+-compound complex formation at 37.5 uM in presence of 37.5 uM ZnCl2 by UV-Vis spectrophotometric analysis
[19] = Drug metabolism in human liver microsomes assessed as metabolite formation by UPLC-MS/MS analysis; type: ADME, Microsome
[20] = Cytotoxicity against human L02 cells assessed as cell viability at 50 uM measured after 72 hrs by MTT assay relative to control; type: cell-based; details: read-out: Activity
[21] = Drug metabolism in rat intestine assessed as metabolite formation by UPLC-MS/MS analysis; type: ADME, tissue-based
[22] = molecular target: Amyloid-beta precursor protein (Homo sapiens) (UniProt P05067); test: Inhibition of self-induced amyloid beta (1 to 42) (unknown origin) aggregation at 25 uM measured after 24 hrs by TEM analysis
[23] = Metal chelating activity assessed as Fe2+-compound complex formation at 37.5 uM in presence of 37.5 uM FeSO4 by UV-Vis spectrophotometric analysis
[24] = Cytotoxicity against human L02 cells assessed as cell viability at 25 uM measured after 72 hrs by MTT assay relative to control; type: cell-based; details: read-out: Activity
[25] = Drug metabolism in rat liver microsomes assessed as metabolite formation by UPLC-MS/MS analysis; type: ADME, Microsome
[26] = Cytotoxicity against human L02 cells assessed as cell viability at 12.5 uM measured after 72 hrs by MTT assay relative to control; type: cell-based; details: read-out: Activity
[27] = Metal chelating activity assessed as Al3+-compound complex formation at 37.5 uM in presence of 37.5 uM AlCl3 by UV-Vis spectrophotometric analysis
[28] = Metal chelating activity assessed as Cu2+-compound complex formation at 37.5 uM in presence of 37.5 uM CuCl2 by UV-Vis spectroscopic analysis
[29] = test system: PC-12; test: Cytotoxicity against rat PC-12 cells assessed as reduction in cell viability <= 100 uM measured after 48 hrs by MTT assay; type: cell-based; details: pc-12, 48 h
[30] = molecular target: Amyloid-beta precursor protein (Homo sapiens) (UniProt P05067); test: Disaggregation of self-induced amyloid beta (1 to 42) (unknown origin) preformed fibrils at 25 uM by ThT fluorescence assay relative to control
[31] = test system: L02; test: Hepatoprotective activity H2O2-induced cell injury in human L02 cells assessed as cell viability at 10 uM measured after 48 hrs by MTT assay (reference value: 56.89 %); type: functional; details: read-out: Activity
[32] = Cytotoxicity against human L02 cells assessed as cell viability at 6.25 uM measured after 72 hrs by MTT assay relative to control; type: cell-based; details: read-out: Activity
[33] = molecular target: Amyloid-beta precursor protein (Homo sapiens) (UniProt P05067); test: Disaggregation of self-induced amyloid beta (1 to 42) (unknown origin) preformed fibrils at 25 uM measured after 48 hrs by TEM analysis
[34] = Permeability of the compound in PBS/EtOH (70:30) at 100 ug/ml by PAMPA-BBB assay; type: ADME; details: dose 100 µg/ml, read-out: permeability
[35] = Disaggregation of Copper-induced amyloid beta (1 to 42) (unknown origin) preformed fibrils at 25 uM by ThT fluorescence assay relative to control
[36] = Inhibition of copper-induced amyloid beta (1 to 42) (unknown origin) aggregation measured after 24 hrs by TEM analysis
[37] = Inhibition of copper-induced amyloid beta (1 to 42) (unknown origin) aggregation at 25 uM by ThT fluorescence assay relative to control
[38] = Disaggregation of Copper-induced amyloid beta (1 to 42) (unknown origin) preformed fibrils measured after 48 hrs by TEM analysis
[39] = test system: PC-12; test: Neuroprotective activity against H2O2-induced cell injury in rat PC-12 cells assessed as increase in cell viability causing decrease in LDH content preincubated for 2 hrs followed by H2O2 addition and measured after 24 hrs by LDH assay; type: functional, cell-based; details: dose 5-10 µM, time 26.0 hrs
[40] = test system: PC-12; test: Neuroprotective activity against H2O2-induced cell injury in rat PC12 cells assessed as cell viability preincubated for 2 hrs followed by H2O2 addition and measured after 24 hrs by MTT assay (reference value: 53.8 %); type: functional; details: time 26 hrs

Row | SMILES | IC50 [1] | inhibition [2] | Activity [3] | IC50 [4] | also measured
1 | CCN(CC)C(=O)Oc1ccc(-c2cc(=O)c3c(O)cc(OC(=O)N(CC)CC)cc3o2)cc1 | 7.8 µM | 77.8% | 1.2 equiv | 16.4 µM | –
2 | CN(C)C(=O)Oc1ccc(-c2cc(=O)c3c(O)cc(OC(=O)N(C)C)cc3o2)cc1 | 9.2 µM | 79.2% | 1.1 equiv | 23.7 µM | –
3 | CON(C)C(=O)Oc1ccc(-c2cc(=O)c3c(OC(=O)N(C)OC)cc(OC(=O)N(C)OC)cc3o2)cc1 | 6 µM | 36% | 0.2 equiv | 18.2 µM | IC50 [5]: 24.3 µM; IC50 [6]: 12.7 µM
4 | CCN(C)C(=O)Oc1cccc([C@H](C)N(C)C)c1 [RIVASTIGMINE] | – | – | – | – | Activity [7]: 43.2%; Activity [8]: 43.2%; Activity [9]: 81.4%; Activity [10]: 64.6%; Activity [11]: 58.3%; Activity [12]: inactive
5 | COc1cc2c(cc1OC)C(=O)C(CC1CCN(Cc3ccccc3)CC1)C2 (stereo not given) [DONEPEZIL] | – | – | – | – | Activity [7]: 60.3%; Efficacy [13]: 55%; Efficacy [14]: 66%; Activity [15]: 1.91 millimeter/sec; Activity [16]: 49.6%; Activity [17]: 6361 mm
6 | O=C(Oc1ccc(-c2cc(=O)c3c(O)cc(OC(=O)N(c4ccccc4)c4ccccc4)cc3o2)cc1)N(c1ccccc1)c1ccccc1 | 31.9 µM | 70.9% | 1 equiv | 37.6 µM | –
7 | O=C(Oc1ccc(-c2cc(=O)c3c(O)cc(OC(=O)N4CCCC4)cc3o2)cc1)N1CCCC1 | 13.7 µM | 73.7% | 1.2 equiv | 26.9 µM | –
8 | CCN(C)C(=O)Oc1ccc(-c2cc(=O)c3c(OC(=O)N(C)CC)cc(OC(=O)N(C)CC)cc3o2)cc1 | 5.1 µM | 35.1% | 0.1 equiv | 16.2 µM | Activity [18]: inactive; IC50 [5]: 19.5 µM; Drug metabolism [19]: Metabolite_Detected; viability at 72 h, 50 µM [20]: 69.2%; IC50 [6]: 9.2 µM; Drug metabolism [21]: Metabolite_Detected; inhibition [22]: Active; Activity [23]: inactive; viability at 72 h, 25 µM [24]: 89.8%; Drug metabolism [25]: Metabolite_Detected; viability at 72 h, 12.5 µM [26]: 98.5%; Activity [27]: inactive; Activity [28]: inactive; Activity [29]: Non-Toxic; Activity [30]: 40.6%; viability at 10 µM [31]: 62.7%; viability at 72 h, 6.25 µM [32]: 98%; Activity [33]: Active; Papp at 100 ug/ml [34]: 19.2 ×10⁻⁶ cm/s
9 | COc1cc(/C=C/C(=O)CC(=O)/C=C/c2ccc(O)c(OC)c2)ccc1O | – | – | – | – | Activity [35]: 56.1%; inhibition [36]: Active; inhibition [37]: 53.6%; Activity [38]: Active
10 | O=c1cc(-c2ccc(O)cc2)oc2cc(O)cc(O)c12 [APIGENIN] | > 500 µM | – | 5.2 equiv | > 500 µM | Papp at 100 ug/ml [34]: 1.68 ×10⁻⁶ cm/s
11 | O=C(Oc1ccc(-c2cc(=O)c3c(OC(=O)N4CCOCC4)cc(OC(=O)N4CCOCC4)cc3o2)cc1)N1CCOCC1 | 10.2 µM | 31.2% | 0.2 equiv | 23.8 µM | –
12 | Cc1c(C)c2c(c(C)c1O)CCC(C)(C(=O)O)O2 (stereo not given) [TROLOX] | – | – | – | – | Activity [39]: Active; Activity [40]: 68.8%
13 | CON(C)C(=O)Oc1ccc(-c2cc(=O)c3c(O)cc(OC(=O)N(C)OC)cc3o2)cc1 | 6.8 µM | 76.8% | 1.1 equiv | 17.2 µM | IC50 [5]: 22.6 µM; IC50 [6]: 10.2 µM
14 | O=C(Oc1ccc(-c2cc(=O)c3c(O)cc(OC(=O)N4CCOCC4)cc3o2)cc1)N1CCOCC1 | 11.5 µM | 71.5% | 1.1 equiv | 18.6 µM | –
15 | CN(C)C(=O)Oc1ccc(-c2cc(=O)c3c(OC(=O)N(C)C)cc(OC(=O)N(C)C)cc3o2)cc1 | 8.3 µM | 38.3% | 0.2 equiv | 23.1 µM | –

— ChEMBL document CHEMBL4706484, “Apigenin-rivastigmine hybrids as multi-target-directed liagnds for the treatment of Alzheimer's disease” (Eur J Med Chem, 2020)
